{"source": "patent US10533000B2", "about": "“Metabotrophic glutamate receptor 5 modulators and methods of use thereof” (Sunovion Pharmaceuticals, Inc., priority 2011, dated 2020)", "data": [{"molecular_target": "mGluR5 (Homo sapiens, UniProt P41594)", "sequence (P41594 21-1212)": "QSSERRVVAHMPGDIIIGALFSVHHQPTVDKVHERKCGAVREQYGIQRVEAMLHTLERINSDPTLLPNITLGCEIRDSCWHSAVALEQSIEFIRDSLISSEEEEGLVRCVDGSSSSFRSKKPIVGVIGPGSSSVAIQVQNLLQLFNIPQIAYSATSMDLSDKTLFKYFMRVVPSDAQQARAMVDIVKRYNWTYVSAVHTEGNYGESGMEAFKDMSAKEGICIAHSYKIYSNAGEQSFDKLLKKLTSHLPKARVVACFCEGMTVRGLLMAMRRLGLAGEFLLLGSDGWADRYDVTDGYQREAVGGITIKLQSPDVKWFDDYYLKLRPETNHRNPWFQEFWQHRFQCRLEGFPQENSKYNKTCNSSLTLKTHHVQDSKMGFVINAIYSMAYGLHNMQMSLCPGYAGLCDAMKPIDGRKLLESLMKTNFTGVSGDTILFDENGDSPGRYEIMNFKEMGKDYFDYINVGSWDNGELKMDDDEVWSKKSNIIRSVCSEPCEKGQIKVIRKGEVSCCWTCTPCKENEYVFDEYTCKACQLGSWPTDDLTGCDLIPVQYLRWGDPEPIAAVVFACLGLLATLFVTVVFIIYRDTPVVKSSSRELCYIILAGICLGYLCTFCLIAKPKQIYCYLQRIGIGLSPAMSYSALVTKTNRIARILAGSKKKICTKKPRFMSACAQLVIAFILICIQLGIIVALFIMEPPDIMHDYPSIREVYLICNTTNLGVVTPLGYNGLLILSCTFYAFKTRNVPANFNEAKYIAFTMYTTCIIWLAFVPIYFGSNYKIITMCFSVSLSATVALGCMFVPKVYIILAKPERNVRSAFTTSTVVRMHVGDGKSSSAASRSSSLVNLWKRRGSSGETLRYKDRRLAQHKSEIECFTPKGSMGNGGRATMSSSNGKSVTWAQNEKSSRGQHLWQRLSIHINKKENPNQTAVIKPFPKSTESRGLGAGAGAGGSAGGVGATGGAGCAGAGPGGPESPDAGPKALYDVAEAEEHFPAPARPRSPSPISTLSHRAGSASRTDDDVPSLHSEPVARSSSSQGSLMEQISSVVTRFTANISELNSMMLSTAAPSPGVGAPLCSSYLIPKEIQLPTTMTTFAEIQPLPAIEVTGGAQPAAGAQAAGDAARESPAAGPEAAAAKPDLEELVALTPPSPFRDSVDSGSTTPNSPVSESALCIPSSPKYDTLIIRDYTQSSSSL", "assay": "mGluR5 positive allosteric modulator (PAM) functional assay", "type": "cell-based", "units": {"EC50": "nM"}, "values": [{"molecule": "CC[C@H](C)c1nc(-c2ccc(C#Cc3cccc(F)c3)cc2)no1", "note": "(single isomer, unassigned) [Compound 30]", "EC50": "300 to 1000"}, {"molecule": "CC[C@@H](C)c1nc(-c2ccc(C#Cc3cccc(F)c3)cc2)no1", "note": "(single isomer, unassigned) [Compound 31]", "EC50": "300 to 1000"}, {"molecule": "CC[C@H](C)c1nc(-c2ccc(C#Cc3ccncc3)cc2)no1", "note": "(single isomer, unassigned) [Compound 72]", "EC50": "100 to 300"}, {"molecule": "CC[C@@H](C)c1nc(-c2ccc(C#Cc3ccncc3)cc2)no1", "note": "(single isomer, unassigned) [Compound 73]", "EC50": "30 to 100"}, {"molecule": "Fc1cccc(C#Cc2ccc(-c3noc(C4CCCN4)n3)nc2)c1", "note": "(stereo in doubt) [Compound 120, (R)-3-(5-((3-fluorophenyl)ethynyl)pyridin-2-yl)-5-(pyrrolidin-2-yl)-1,2,4-oxadiazole]", "EC50": "100 to 300"}, {"molecule": "Fc1cccc(C#Cc2ccc(-c3noc(C4CCCN4)n3)nc2)c1", "note": "(stereo in doubt) [Compound 121, (S)-3-(5-((3-fluorophenyl)ethynyl)pyridin-2-yl)-5-(pyrrolidin-2-yl)-1,2,4-oxadiazole]", "EC50": "300 to 1000"}, {"molecule": "Fc1cccc(C#Cc2ccc(-c3nnc(C4CCCC4)o3)cc2)c1", "note": "[Compound 1, 2-cyclopentyl-5-(4-((3-fluorophenyl)ethynyl)phenyl)-1,3,4-oxadiazole]", "EC50": "300 to 1000"}, {"molecule": "CCC(C)c1nnc(-c2ccc(C#Cc3cccc(F)c3)cc2)o1", "note": "(centres unmarked) [Compound 2, 2-(sec-butyl)-5-(4-((3-fluorophenyl)ethynyl)phenyl)-1,3,4-oxadiazole]", "EC50": "100 to 300"}, {"molecule": "CCC(CC)c1nnc(-c2ccc(C#Cc3ccncc3)cc2)o1", "note": "[Compound 3, 2-(pentan-3-yl)-5-(4-(pyridin-4-ylethynyl)phenyl)-1,3,4-oxadiazole]", "EC50": "30 to 100"}, {"molecule": "CCC(CC)c1nnc(-c2ccc(C#Cc3cccc(F)c3)cc2)o1", "note": "[Compound 4, 2-(4-((3-fluorophenyl)ethynyl)phenyl)-5-(pentan-3-yl)-1,3,4-oxadiazole]", "EC50": "30 to 100"}, {"molecule": "CC(c1nnc(-c2ccc(C#Cc3ccccn3)cn2)n1C)N1CCCC1", "note": "(centres unmarked) [Compound 10, 2-(4-methyl-5-(1-(pyrrolidin-1-yl)ethyl)-4H-1,2,4-triazol-3-yl)-5-(pyridin-2-ylethynyl)pyridine]", "EC50": "100 to 300"}, {"molecule": "CC(C)(C)c1noc(-c2ccc(C#Cc3cccc(F)c3)cc2)n1", "note": "[Compound 17, 3-(tert-butyl)-5-(4-((3-fluorophenyl)ethynyl)phenyl)-1,2,4-oxadiazole]", "EC50": "300 to 1000"}, {"molecule": "CC(C)c1nc(-c2ccc(C#Cc3cccc(F)c3)cc2)no1", "note": "[Compound 24, 3-(4-((3-fluorophenyl)ethynyl)phenyl)-5-isopropyl-1,2,4-oxadiazole]", "EC50": "300 to 1000"}, {"molecule": "CC(C)Cc1nc(-c2ccc(C#Cc3cccc(F)c3)cc2)no1", "note": "[Compound 26, 3-(4-((3-fluorophenyl)ethynyl)phenyl)-5-isobutyl-1,2,4-oxadiazole]", "EC50": "300 to 1000"}, {"molecule": "CC(C)(C)c1nc(-c2ccc(C#Cc3cccc(F)c3)cc2)no1", "note": "[Compound 27, 5-(tert-butyl)-3-(4-((3-fluorophenyl)ethynyl)phenyl)-1,2,4-oxadiazole]", "EC50": "100 to 300"}, {"molecule": "CCC(C)c1nc(-c2ccc(C#Cc3cccc(F)c3)cc2)no1", "note": "(centres unmarked) [Compound 29, 5-5-(sec-butyl)-3-(4-((3-fluorophenyl)ethynyl)phenyl)-1,2,4-oxadiazole]", "EC50": "100 to 300"}, {"molecule": "Fc1cccc(C#Cc2ccc(-c3noc(C4CCCC4)n3)cc2)c1", "note": "[Compound 32, 5-cyclopentyl-3-(4-((3-fluorophenyl)ethynyl)phenyl)-1,2,4-oxadiazole]", "EC50": "100 to 300"}, {"molecule": "CCC(CC)c1nc(-c2ccc(C#Cc3cccc(F)c3)cc2)no1", "note": "[Compound 34, 3-(4-((3-fluorophenyl)ethynyl)phenyl)-5-(pentan-3-yl)-1,2,4-oxadiazole]", "EC50": "100 to 300"}, {"molecule": "Fc1cccc(C#Cc2ccc(-c3noc(C4CCCO4)n3)cc2)c1", "note": "(centres unmarked) [Compound 39, 3-(4-((3-fluorophenyl)ethynyl)phenyl)-5-(tetrahydrofuran-2-yl)-1,2,4-oxadiazole]", "EC50": "300 to 1000"}, {"molecule": "COCCc1nc(-c2ccc(C#Cc3cccc(F)c3)cc2)no1", "note": "[Compound 40, 3-(4-((3-fluorophenyl)ethynyl)phenyl)-5-(2-methoxyethyl)-1,2,4-oxadiazole]", "EC50": "300 to 1000"}, {"molecule": "CCC(OC)c1nc(-c2ccc(C#Cc3cccc(F)c3)cc2)no1", "note": "(centres unmarked) [Compound 44, 3-(4-((3-fluorophenyl)ethynyl)phenyl)-5-(1-methoxypropyl)-1,2,4-oxadiazole]", "EC50": "100 to 300"}, {"molecule": "CN1CCCC1c1nc(-c2ccc(C#Cc3cccc(F)c3)cc2)no1", "note": "(centres unmarked) [Compound 47, 3-(4-((3-fluorophenyl)ethynyl)phenyl)-5-(1-methylpyrrolidin-2-yl)-1,2,4-oxadiazole]", "EC50": "100 to 300"}, {"molecule": "CCN1CCCC1c1nc(-c2ccc(C#Cc3cccc(F)c3)cc2)no1", "note": "(centres unmarked) [Compound 48, 5-(1-ethylpyrrolidin-2-yl)-3-(4-((3-fluorophenyl)ethynyl)phenyl)-1,2,4-oxadiazole]", "EC50": "100 to 300"}, {"molecule": "CC(C)N1CCCC1c1nc(-c2ccc(C#Cc3cccc(F)c3)cc2)no1", "note": "(centres unmarked) [Compound 49, 3-(4-((3-fluorophenyl)ethynyl)phenyl)-5-(1-isopropylpyrrolidin-2-yl)-1,2,4-oxadiazole]", "EC50": "300 to 1000"}, {"molecule": "Fc1cccc(C#Cc2ccc(-c3noc(C4CCCN4C4CCC4)n3)cc2)c1", "note": "(centres unmarked) [Compound 50, 5-(1-cyclobutylpyrrolidin-2-yl)-3-(4-((3-fluorophenyl)ethynyl)phenyl)-1,2,4-oxadiazole]", "EC50": "300 to 1000"}, {"molecule": "CN1CCCC1(C)c1nc(-c2ccc(C#Cc3cccc(F)c3)cn2)no1", "note": "(centres unmarked) [Compound 51, 5-(1,2-dimethylpyrrolidin-2-yl)-3-(5-((3-fluorophenyl)ethynyl)pyridin-2-yl)-1,2,4-oxadiazole]", "EC50": "≤ 30"}, {"molecule": "CC(c1nc(-c2ccc(C#Cc3cccc(F)c3)cc2)no1)N1CCC1", "note": "(centres unmarked) [Compound 52, 5-(1-(azetidin-1-yl)ethyl)-3-(4-((3-fluorophenyl)ethynyl)phenyl)-1,2,4-oxadiazole]", "EC50": "300 to 1000"}, {"molecule": "CC(c1nc(-c2ccc(C#Cc3cccc(F)c3)cc2)no1)N1CCCC1", "note": "(centres unmarked) [Compound 53, 3-(4-((3-fluorophenyl)ethynyl)phenyl)-5-(1-(pyrrolidin-1-yl)ethyl)-1,2,4-oxadiazole]", "EC50": "300 to 1000"}, {"molecule": "CC(c1nc(-c2ccc(C#Cc3cccc(F)c3)cc2)no1)N(C)C1CC1", "note": "(centres unmarked) [Compound 54, N-(1-(3-(4-((3-fluorophenyl)ethynyl)phenyl)-1,2,4-oxadiazol-5-yl)ethyl)-N-methylcyclopropanamine]", "EC50": "300 to 1000"}, {"molecule": "COC(C)c1nc(-c2ccc(C#Cc3cccc(F)c3)cc2)no1", "note": "(centres unmarked) [Compound 58, 3-(4-((3-fluorophenyl)ethynyl)phenyl)-5-(1-methoxyethyl)-1,2,4-oxadiazole]", "EC50": "100 to 300"}, {"molecule": "CCN(C)c1nc(-c2ccc(C#Cc3cccc(F)c3)cc2)no1", "note": "[Compound 61, N-ethyl-3-(4-((3-fluorophenyl)ethynyl)phenyl)-N-methyl-1,2,4-oxadiazol-5-amine]", "EC50": "300 to 1000"}, {"molecule": "CC(C)(C)c1nc(-c2ccc(C#Cc3ccc(F)cc3)cc2)no1", "note": "[Compound 66, 5-(tert-butyl)-3-(4-((4-fluorophenyl)ethynyl)phenyl)-1,2,4-oxadiazole]", "EC50": "100 to 300"}, {"molecule": "CCC(C)c1nc(-c2ccc(C#Cc3ccccn3)cc2)no1", "note": "(centres unmarked) [Compound 67]", "EC50": "≤ 30"}, {"molecule": "CN1CCCC1c1nc(-c2ccc(C#Cc3ccccn3)cc2)no1", "note": "(centres unmarked) [Compound 70, 5-(1-methylpyrrolidin-2-yl)-3-(4-(pyridin-2-ylethynyl)phenyl)-1,2,4-oxadiazole]", "EC50": "≤ 30"}, {"molecule": "CCC(C)c1nc(-c2ccc(C#Cc3ccncc3)cc2)no1", "note": "(centres unmarked) [Compound 71, 5-(sec-butyl)-3-(4-(pyridin-4-ylethynyl)phenyl)-1,2,4-oxadiazole]", "EC50": "100 to 300"}, {"molecule": "COC(C)c1nc(-c2ccc(C#Cc3ccncc3)cc2)no1", "note": "(centres unmarked) [Compound 74, 5-(1-methoxyethyl)-3-(4-(pyridin-4-ylethynyl)phenyl)-1,2,4-oxadiazole]", "EC50": "≤ 30"}, {"molecule": "CCC(CC)c1nc(-c2ccc(C#Cc3ccncc3)cc2)no1", "note": "[Compound 75, 5-(pentan-3-yl)-3-(4-(pyridin-4-ylethynyl)phenyl)-1,2,4-oxadiazole]", "EC50": "30 to 100"}, {"molecule": "CCC(OC)c1nc(-c2ccc(C#Cc3ccncc3)cc2)no1", "note": "(centres unmarked) [Compound 76, 5-(1-methoxypropyl)-3-(4-(pyridin-4-ylethynyl)phenyl)-1,2,4-oxadiazole]", "EC50": "30 to 100"}, {"molecule": "C(#Cc1ccc(-c2noc(C3CCCN3)n2)cc1)c1ccncc1", "note": "(centres unmarked) [Compound 77, 3-(4-(pyridin-4-ylethynyl)phenyl)-5-(pyrrolidin-2-yl)-1,2,4-oxadiazole]", "EC50": "100 to 300"}, {"molecule": "CN1CCCC1c1nc(-c2ccc(C#Cc3ccncc3)cc2)no1", "note": "(centres unmarked) [Compound 78, 5-(1-methylpyrrolidin-2-yl)-3-(4-(pyridin-4-ylethynyl)phenyl)-1,2,4-oxadiazole]", "EC50": "≤ 30"}, {"molecule": "CNC(C)c1nc(-c2ccc(C#Cc3ccncc3)cc2)no1", "note": "(centres unmarked) [Compound 79, N-methyl-1-(3-(4-(pyridin-4-ylethynyl)phenyl)-1,2,4-oxadiazol-5-yl)ethanamine]", "EC50": "100 to 300"}, {"molecule": "CC(c1nc(-c2ccc(C#Cc3ccncc3)cc2)no1)N(C)C", "note": "(centres unmarked) [Compound 80, N,N-dimethyl-1-(3-(4-(pyridin-4-ylethynyl)phenyl)-1,2,4-oxadiazol-5-yl)ethanamine]", "EC50": "≤ 30"}, {"molecule": "CCC(C)c1nc(-c2ccc(C#Cc3cccnc3)cc2)no1", "note": "(centres unmarked) [Compound 81, 5-(sec-butyl)-3-(4-(pyridin-3-ylethynyl)phenyl)-1,2,4-oxadiazole]", "EC50": "300 to 1000"}, {"molecule": "CCC(C)c1nc(-c2ccc(C#Cc3cccc(F)c3)nc2)no1", "note": "(centres unmarked) [Compound 82, 5-(sec-butyl)-3-(6-((3-fluorophenyl)ethynyl)pyridin-3-yl)-1,2,4-oxadiazole]", "EC50": "30 to 100"}, {"molecule": "Fc1cccc(C#Cc2ccc(-c3noc(C4CCCC4)n3)cn2)c1", "note": "[Compound 83, 5-cyclopentyl-3-(6-((3-fluorophenyl)ethynyl)pyridin-3-yl)-1,2,4-oxadiazole]", "EC50": "100 to 300"}, {"molecule": "COC(C)c1nc(-c2ccc(C#Cc3cccc(F)c3)nc2)no1", "note": "(centres unmarked) [Compound 84, 3-(6-((3-fluorophenyl)ethynyl)pyridin-3-yl)-5-(1-methoxyethyl)-1,2,4-oxadiazole]", "EC50": "30 to 100"}, {"molecule": "CCC(OC)c1nc(-c2ccc(C#Cc3cccc(F)c3)nc2)no1", "note": "(centres unmarked) [Compound 85, 3-(6-((3-fluorophenyl)ethynyl)pyridin-3-yl)-5-(1-methoxypropyl)-1,2,4-oxadiazole]", "EC50": "≤ 30"}]}]}
